In ChEMBL document CHEMBL4602695, “Discovery and SARs of 5-Chloro-N4-phenyl-N2-(pyridin-2-yl)pyrimidine-2,4-diamine Derivatives as Oral Available and Dual CDK 6 and 9 Inhibitors with Potent Antitumor Activity” (J Med Chem, 2020):

Columns and labels:
MCF7 = assay: Antiproliferative activity against human MCF7 cells assessed as inhibition of cell proliferation measured after 48 hrs by CCK8 assay; format: functional, cell-based; conditions: MCF7, 48 h
CDK9/Cyclin K = CDK9/Cyclin K (Homo sapiens, UniProt P50750); assay: biochemical
Jurkat = assay: Antiproliferative activity against human Jurkat cells assessed as inhibition of cell proliferation measured after 48 hrs by CCK8 assay; format: functional, cell-based
[1] = Cytotoxicity against human L02 cells assessed as inhibition of cell proliferation measured after 48 hrs by CCK8 assay; format: cell-based
CDK6/cyclin D3 = CDK6/cyclin D3 (Homo sapiens, UniProt Q00534); design: species or system Sf9
CDK2/Cyclin A2 = CDK2/Cyclin A2 (Homo sapiens, UniProt P24941); design: species or system Sf9
MDA-MB-231 = assay: Antiproliferative activity against human MDA-MB-231 cells assessed as inhibition of cell proliferation measured after 48 hrs by CCK8 assay; format: functional, cell-based; conditions: MDA-MB-231, 48 h

CDK6/cyclin D3, sequence (P30281 whole entry): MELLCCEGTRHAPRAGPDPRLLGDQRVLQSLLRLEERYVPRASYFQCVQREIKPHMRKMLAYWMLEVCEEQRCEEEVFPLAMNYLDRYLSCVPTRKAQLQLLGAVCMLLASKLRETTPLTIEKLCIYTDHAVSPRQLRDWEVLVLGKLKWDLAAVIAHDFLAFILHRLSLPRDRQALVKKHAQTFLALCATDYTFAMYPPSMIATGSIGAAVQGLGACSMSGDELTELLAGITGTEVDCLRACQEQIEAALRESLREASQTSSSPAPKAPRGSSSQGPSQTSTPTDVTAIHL
CDK6/cyclin D3, sequence (Q00534 whole entry): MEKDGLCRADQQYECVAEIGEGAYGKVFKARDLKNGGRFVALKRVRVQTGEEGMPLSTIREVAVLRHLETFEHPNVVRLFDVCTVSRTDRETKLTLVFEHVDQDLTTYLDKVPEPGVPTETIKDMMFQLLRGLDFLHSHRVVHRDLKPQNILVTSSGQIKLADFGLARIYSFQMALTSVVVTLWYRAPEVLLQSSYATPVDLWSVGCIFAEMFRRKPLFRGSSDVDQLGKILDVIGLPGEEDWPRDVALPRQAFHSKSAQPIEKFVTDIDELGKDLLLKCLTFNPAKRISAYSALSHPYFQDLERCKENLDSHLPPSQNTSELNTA
CDK9/Cyclin K, sequence (P50750 whole entry): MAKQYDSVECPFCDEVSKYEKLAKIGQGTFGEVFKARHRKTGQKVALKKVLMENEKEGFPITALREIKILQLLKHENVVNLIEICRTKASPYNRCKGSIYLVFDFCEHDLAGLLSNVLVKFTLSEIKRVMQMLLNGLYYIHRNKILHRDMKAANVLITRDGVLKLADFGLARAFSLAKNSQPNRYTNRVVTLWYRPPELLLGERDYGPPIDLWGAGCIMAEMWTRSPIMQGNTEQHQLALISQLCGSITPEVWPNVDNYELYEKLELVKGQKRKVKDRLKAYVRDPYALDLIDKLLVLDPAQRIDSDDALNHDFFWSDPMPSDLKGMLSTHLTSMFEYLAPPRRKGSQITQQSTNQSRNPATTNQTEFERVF
CDK9/Cyclin K, sequence (O75909 whole entry, further chain): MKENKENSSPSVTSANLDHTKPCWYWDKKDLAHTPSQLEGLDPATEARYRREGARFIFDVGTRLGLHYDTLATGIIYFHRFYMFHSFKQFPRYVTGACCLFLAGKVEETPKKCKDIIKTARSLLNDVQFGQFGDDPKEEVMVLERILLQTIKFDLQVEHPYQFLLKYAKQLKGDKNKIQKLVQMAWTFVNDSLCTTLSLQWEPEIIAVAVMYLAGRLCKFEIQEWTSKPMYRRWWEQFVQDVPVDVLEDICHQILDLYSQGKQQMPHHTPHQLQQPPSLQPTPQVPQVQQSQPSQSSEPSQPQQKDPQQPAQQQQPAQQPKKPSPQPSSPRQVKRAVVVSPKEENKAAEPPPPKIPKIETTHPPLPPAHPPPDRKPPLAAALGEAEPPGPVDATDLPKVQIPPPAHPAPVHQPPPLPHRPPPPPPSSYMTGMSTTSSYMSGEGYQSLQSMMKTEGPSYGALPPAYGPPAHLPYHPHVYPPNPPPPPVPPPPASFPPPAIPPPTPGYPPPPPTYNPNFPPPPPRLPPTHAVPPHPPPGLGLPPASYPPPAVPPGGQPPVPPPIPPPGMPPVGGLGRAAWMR

Row | SMILES | GI50 (MCF7) | IC50 (CDK9/Cyclin K) | GI50 (Jurkat) | GI50 at 48 h [1] | IC50 (CDK6/cyclin D3) | IC50 (CDK2/Cyclin A2) | GI50 (MDA-MB-231)
1 | CN1CCN(c2ccc(Nc3ncc(Cl)c(NCc4ccco4)n3)nc2)CC1 | 21.3 µM | > 10 µM | > 100 µM | 45.7 µM | 0.279 µM | > 10 µM | 11 µM
2 | Cc1ccccc1Nc1nc(Nc2ccc(N3CCN(C)CC3)cc2)ncc1Cl | 20.6 µM | 0.434 µM | 13.7 µM | 6.51 µM | 0.143 µM | 1.19 µM | 7.02 µM
3 | Cc1ccccc1Nc1nc(Nc2cc(Cl)ccn2)ncc1Cl | > 100 µM | > 10 µM | 39.6 µM | 41.5 µM | > 10 µM | > 10 µM | 52.4 µM
4 | CN1CCN(c2ccc(Nc3ncc(Cl)c(Nc4ccc(C(C)(C)C)cc4)n3)nc2)CC1 | 12.6 µM | 6.82 µM | – | 6.07 µM | 0.735 µM | > 10 µM | 16.2 µM
5 | CC(C)c1ccccc1Nc1nc(Nc2ccc(N3CCN(C)CC3)cn2)ncc1Cl | 4.36 µM | 2.65 µM | 5.14 µM | – | 0.033 µM | > 10 µM | 4.09 µM
6 | CN1CCN(c2ccc(Nc3ncc(Cl)c(NCc4ccc(C(F)(F)F)cc4)n3)nc2)CC1 | 28.4 µM | > 10 µM | 7.96 µM | 26.2 µM | 8.93 µM | > 10 µM | 19.1 µM
7 | Cc1ccccc1Nc1nc(NC2CC2)ncc1Cl | > 100 µM | > 10 µM | > 100 µM | > 100 µM | > 10 µM | > 10 µM | > 100 µM
8 | CC(C)c1cccc(Nc2nc(Nc3ccc(N4CCN(C)CC4)cn3)ncc2Cl)c1 | 8.64 µM | 0.654 µM | 12.2 µM | 12.5 µM | 0.452 µM | > 10 µM | 5.59 µM
9 | Cc1ccccc1Nc1nc(NCc2ccncc2)ncc1Cl | > 100 µM | > 10 µM | > 100 µM | > 100 µM | > 10 µM | > 10 µM | > 100 µM
10 | Cc1ccccc1Nc1nc(Nc2ccc(N3CCCCC3)cc2)ncc1Cl | > 100 µM | > 10 µM | > 100 µM | 5.69 µM | > 10 µM | 3.69 µM | 19.9 µM
11 | CN1CCN(c2ccc(Nc3ncc(Cl)c(NCc4ccc(F)cc4)n3)nc2)CC1 | 19.3 µM | > 10 µM | > 100 µM | 39.7 µM | > 10 µM | > 10 µM | > 100 µM
12 | CN1CCN(c2ccc(Nc3ncc(Cl)c(NCCc4ccccc4)n3)nc2)CC1 | 11.8 µM | > 10 µM | > 100 µM | 14.9 µM | > 10 µM | > 10 µM | > 100 µM
13 | Cc1ccccc1Nc1nc(Nc2ccccc2)ncc1Cl | > 100 µM | > 10 µM | > 100 µM | > 100 µM | > 10 µM | > 10 µM | > 100 µM
14 | CCc1ccc(Nc2nc(Nc3ccc(N4CCN(C)CC4)cn3)ncc2Cl)cc1 | 8.23 µM | 6.87 µM | 11.1 µM | 12.1 µM | 0.281 µM | > 10 µM | 5.56 µM
15 | CN1CCN(c2ccc(Nc3ncc(Cl)c(NCCc4ccc(F)cc4)n3)nc2)CC1 | > 100 µM | > 10 µM | > 100 µM | > 100 µM | > 10 µM | > 10 µM | 28.5 µM
16 | CC(C)c1ccc(Nc2nc(Nc3ccc(N4CCN(C)CC4)cn3)ncc2Cl)cc1 | 1.88 µM | 9.17 µM | 7.53 µM | 13.7 µM | 0.126 µM | > 10 µM | 7.02 µM
17 | Cc1cccc(Nc2nc(Nc3ccc(N4CCN(C)CC4)cn3)ncc2Cl)c1 | 7.16 µM | 0.431 µM | 15.3 µM | 6.08 µM | 0.08 µM | > 10 µM | 5.27 µM
18 | Cc1ccccc1Nc1nc(NCCc2ccccn2)ncc1Cl | > 100 µM | > 10 µM | > 100 µM | > 100 µM | > 10 µM | > 10 µM | > 100 µM
19 | CN1CCN(c2ccc(Nc3ncc(Cl)c(NCCc4ccccc4F)n3)nc2)CC1 | 8.73 µM | > 10 µM | 14.3 µM | 9.67 µM | 3.71 µM | > 10 µM | > 100 µM
20 | COc1cccc(Nc2nc(Nc3ccc(N4CCN(C)CC4)cn3)ncc2Cl)c1 | 7.54 µM | 6.2 µM | 15.8 µM | 3.47 µM | 0.103 µM | 0.701 µM | 8.51 µM

Row | SMILES | GI50 (MCF7) | IC50 (CDK9/Cyclin K) | GI50 (Jurkat) | GI50 at 48 h [1] | IC50 (CDK6/cyclin D3) | IC50 (CDK2/Cyclin A2) | GI50 (MDA-MB-231)
21 | COc1ccc(CNc2nc(Nc3ccc(N4CCN(C)CC4)cn3)ncc2Cl)cc1 | 17.3 µM | > 10 µM | 12.9 µM | 12.9 µM | 0.64 µM | > 10 µM | 14.9 µM
22 | CCN1CCN(c2ccc(Nc3ncc(Cl)c(Nc4ccccc4C)n3)cc2)CC1 | 3.16 µM | 0.751 µM | 2.06 µM | 0.97 µM | 0.114 µM | 0.718 µM | 3.04 µM
23 | Cc1ccccc1Nc1nc(NCCc2cccnc2)ncc1Cl | > 100 µM | > 10 µM | > 100 µM | > 100 µM | > 10 µM | > 10 µM | > 100 µM
24 | Cc1cc(C)c(Nc2nc(Nc3ccc(N4CCN(C)CC4)cn3)ncc2Cl)c(C)c1 | 9.47 µM | > 10 µM | 7.6 µM | 20.5 µM | 8.87 µM | > 10 µM | 21 µM
25 | COc1ccccc1CNc1nc(Nc2ccc(N3CCN(C)CC3)cn2)ncc1Cl | > 100 µM | > 10 µM | 10.8 µM | 25.5 µM | > 10 µM | > 10 µM | 29.3 µM
26 | COc1cc(Nc2ncc(Cl)c(Nc3ccccc3C)n2)ccn1 | > 100 µM | 0.908 µM | 9.38 µM | 18.4 µM | > 10 µM | 0.074 µM | 42.6 µM
27 | Cc1ccccc1Nc1nc(Nc2ccc(N3CCN(C(=O)OC(C)(C)C)CC3)cc2)ncc1Cl | 2.25 µM | 0.176 µM | 5.12 µM | 1.75 µM | 0.116 µM | 0.192 µM | 3.26 µM
28 | CCN1CCN(c2ccc(Nc3ncc(Cl)c(Nc4ccccc4C)n3)nc2)CC1 | > 100 µM | > 10 µM | > 100 µM | > 100 µM | > 10 µM | 9.18 µM | > 100 µM
29 | Cc1ccccc1Nc1nc(Nc2ccccn2)ncc1Cl | 31.4 µM | 8.11 to 8.12 µM | 20.1 µM | 6.15 µM | 2.76 µM | 0.643 µM | 11.2 µM
30 | CN1CCN(c2ccc(Nc3ncc(Cl)c(Nc4ccccc4)n3)nc2)CC1 | 51.8 µM | 9.85 µM | > 100 µM | 7.99 µM | 0.113 µM | > 10 µM | 37.4 µM
31 | COc1cccc(CNc2nc(Nc3ccc(N4CCN(C)CC4)cn3)ncc2Cl)c1 | 19.5 µM | 3.29 µM | 73.4 µM | 16.2 µM | 1.6 µM | > 10 µM | 20.3 µM
32 | CN1CCN(c2ccc(Nc3ncc(Cl)c(NCc4ccccc4)n3)nc2)CC1 | 17.3 µM | > 10 µM | > 100 µM | 20.3 µM | > 10 µM | > 10 µM | 24.8 µM
33 | Cc1ccccc1Nc1nc(NCCc2ccccc2)ncc1Cl | > 100 µM | > 10 µM | > 100 µM | > 100 µM | > 10 µM | > 10 µM | > 100 µM
34 | Cc1ccccc1Nc1nc(Nc2ccncc2)ncc1Cl | 98.5 µM | > 10 µM | > 100 µM | > 100 µM | > 10 µM | 6.23 µM | 68.1 µM
35 | Cc1ccccc1Nc1nc(NCc2ccco2)ncc1Cl | > 100 µM | > 10 µM | > 100 µM | > 100 µM | > 10 µM | > 10 µM | > 100 µM
36 | Cc1ccccc1Nc1nc(Nc2ccc(N3CCCN(C)CC3)cc2)ncc1Cl | 4.29 µM | 0.88 µM | 11.3 µM | 1.24 µM | 0.536 µM | 1.59 µM | 6.39 µM
37 | COC[C@@H](C)N[C@H]1CC[C@H](Nc2cc(-c3cccc(NCC4(C#N)CCOCC4)n3)c(Cl)cn2)CC1 | 43.4 µM | 0.002 µM | < 0.16 µM | 28.3 µM | > 10 µM | 3.46 µM | < 0.16 µM
38 | Cc1ccccc1Nc1nc(Nc2ccc(N3CCOCC3)cn2)ncc1Cl | 6.63 µM | 0.051 µM | 14.1 µM | 1.99 µM | 0.046 µM | > 10 µM | 5.98 µM
39 | Cc1ccc(CNc2nc(Nc3ccc(N4CCN(C)CC4)cn3)ncc2Cl)cc1 | 38.1 µM | > 10 µM | 12.7 µM | > 100 µM | 1.04 µM | > 10 µM | 18.6 µM
40 | Cc1ccc(Nc2ncc(Cl)c(Nc3ccccc3C)n2)cc1 | > 100 µM | > 10 µM | > 100 µM | > 100 µM | > 10 µM | > 10 µM | > 100 µM
